Reference: ChEMBL document CHEMBL1909046, “DrugMatrix in vitro pharmacology data”
pIC50, pKi: −log10 of the molar value.

Key:
Insulin receptor = Insulin receptor (Rattus norvegicus, UniProt P15127); type: cell membranes, Wistar, Liver, Membrane; further: in other assays of this panel Not Active means under 50% inhibition at 10 µM
[1] = molecular target: cGMP-specific 3',5'-cyclic phosphodiesterase (Homo sapiens, UniProt O76074); assay: DRUGMATRIX: Phosphodiesterase PDE5 enzyme inhibition (substrate: [3H]cGMP + cGMP); type: tissue-based; details: platelet; Not Active = under 50% inhibition at 10 µM
[2] = molecular target: T1, C-X-C chemokine receptor type 1 (Homo sapiens, UniProt P25024); further: in other assays of this panel Not Active means under 50% inhibition at 10 µM
T1 sequence (P25024 whole entry): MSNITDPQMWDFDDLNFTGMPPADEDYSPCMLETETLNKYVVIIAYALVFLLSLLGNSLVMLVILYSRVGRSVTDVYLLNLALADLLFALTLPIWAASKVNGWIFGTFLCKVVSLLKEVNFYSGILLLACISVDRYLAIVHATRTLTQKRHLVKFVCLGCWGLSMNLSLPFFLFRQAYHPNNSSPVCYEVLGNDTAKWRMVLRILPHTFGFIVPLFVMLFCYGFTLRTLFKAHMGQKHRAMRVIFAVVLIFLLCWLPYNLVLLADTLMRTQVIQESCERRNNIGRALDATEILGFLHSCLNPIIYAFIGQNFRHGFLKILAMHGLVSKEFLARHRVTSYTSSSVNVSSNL

[3] = molecular target: 5-hydroxytryptamine receptor 6 (Homo sapiens, UniProt P50406); type: cell membranes, HeLa, Membrane; details: for IC50: hela; for pIC50: read-out: IC50; for pKi: read-out: Ki; on all read-outs here: in other assays of this panel Not Active means under 50% inhibition at 10 µM
Sequence of 5-hydroxytryptamine receptor 6 (P50406 whole entry): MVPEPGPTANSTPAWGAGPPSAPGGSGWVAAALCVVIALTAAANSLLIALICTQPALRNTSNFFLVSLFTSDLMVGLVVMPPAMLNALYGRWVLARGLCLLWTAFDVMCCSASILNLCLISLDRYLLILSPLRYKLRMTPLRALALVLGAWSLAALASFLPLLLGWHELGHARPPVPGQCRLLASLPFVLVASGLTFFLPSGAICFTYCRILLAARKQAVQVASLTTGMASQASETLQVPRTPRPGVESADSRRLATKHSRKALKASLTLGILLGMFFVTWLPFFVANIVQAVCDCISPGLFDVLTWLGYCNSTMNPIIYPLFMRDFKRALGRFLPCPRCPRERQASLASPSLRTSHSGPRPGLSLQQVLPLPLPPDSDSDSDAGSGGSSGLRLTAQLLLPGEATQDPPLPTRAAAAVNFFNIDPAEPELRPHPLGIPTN

Nitric oxide synthase 1 = Nitric oxide synthase 1 (Rattus norvegicus, UniProt P29476); type: tissue-based, Cerebellum; further: in other assays of this panel Not Active means under 50% inhibition at 10 µM
Sequence of Nitric oxide synthase 1 (P29476 whole entry): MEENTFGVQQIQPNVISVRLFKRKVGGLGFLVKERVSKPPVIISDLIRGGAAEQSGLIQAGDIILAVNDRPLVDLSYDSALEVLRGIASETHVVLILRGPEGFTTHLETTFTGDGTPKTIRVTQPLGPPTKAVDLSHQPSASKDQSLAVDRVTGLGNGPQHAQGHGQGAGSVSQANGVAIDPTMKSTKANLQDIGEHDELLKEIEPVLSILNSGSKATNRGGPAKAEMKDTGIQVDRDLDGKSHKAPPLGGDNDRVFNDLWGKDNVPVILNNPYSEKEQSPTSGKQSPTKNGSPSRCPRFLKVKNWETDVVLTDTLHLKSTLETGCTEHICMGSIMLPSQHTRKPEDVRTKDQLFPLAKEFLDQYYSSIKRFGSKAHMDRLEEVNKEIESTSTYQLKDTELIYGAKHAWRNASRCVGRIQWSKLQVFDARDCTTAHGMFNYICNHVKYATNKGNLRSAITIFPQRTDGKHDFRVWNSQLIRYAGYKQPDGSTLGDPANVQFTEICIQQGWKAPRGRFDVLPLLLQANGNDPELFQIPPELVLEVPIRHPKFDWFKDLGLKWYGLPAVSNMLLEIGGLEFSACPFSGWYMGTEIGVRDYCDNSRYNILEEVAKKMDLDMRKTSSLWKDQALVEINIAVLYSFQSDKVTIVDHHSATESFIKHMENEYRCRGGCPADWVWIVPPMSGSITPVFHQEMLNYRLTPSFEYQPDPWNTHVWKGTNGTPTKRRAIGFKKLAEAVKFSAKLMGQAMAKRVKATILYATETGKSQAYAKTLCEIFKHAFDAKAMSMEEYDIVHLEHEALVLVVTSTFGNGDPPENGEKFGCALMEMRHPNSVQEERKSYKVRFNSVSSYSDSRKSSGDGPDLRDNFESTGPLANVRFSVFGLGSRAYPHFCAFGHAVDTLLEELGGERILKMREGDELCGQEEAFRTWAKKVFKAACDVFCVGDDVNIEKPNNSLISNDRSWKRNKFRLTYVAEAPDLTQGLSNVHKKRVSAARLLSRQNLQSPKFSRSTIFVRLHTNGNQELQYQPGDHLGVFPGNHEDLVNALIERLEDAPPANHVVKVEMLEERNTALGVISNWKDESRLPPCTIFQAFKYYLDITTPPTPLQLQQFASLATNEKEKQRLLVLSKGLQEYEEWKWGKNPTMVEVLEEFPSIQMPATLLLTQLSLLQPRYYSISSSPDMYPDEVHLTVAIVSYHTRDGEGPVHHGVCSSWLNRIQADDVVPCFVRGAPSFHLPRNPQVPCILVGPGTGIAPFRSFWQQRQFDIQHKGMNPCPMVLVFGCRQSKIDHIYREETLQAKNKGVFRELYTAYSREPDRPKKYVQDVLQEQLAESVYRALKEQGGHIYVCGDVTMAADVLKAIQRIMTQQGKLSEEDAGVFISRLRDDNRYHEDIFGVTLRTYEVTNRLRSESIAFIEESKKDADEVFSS

[4] = DRUGMATRIX: Phorbol Ester radioligand binding (ligand: [3H] PDBu); type: cell membranes, Mus musculus, ICR, Brain, Membrane; details: Not Active = under 50% inhibition at 10 µM
[5] = DRUGMATRIX: Potassium Channel [KATP] radioligand binding (ligand: [3H] Glyburide); type: cell membranes, Membrane; details: hit-t15; Not Active = under 50% inhibition at 10 µM
[6] = molecular target: Sigma non-opioid intracellular receptor 1 (Homo sapiens, UniProt Q99720); assay: DRUGMATRIX: Sigma1 radioligand binding (ligand: [3H] Haloperidol); type: cell membranes, Jurkat, Membrane; details: Not Active = under 50% inhibition at 10 µM; for IC50: jurkat
Sequence of Sigma non-opioid intracellular receptor 1 (Q99720 whole entry): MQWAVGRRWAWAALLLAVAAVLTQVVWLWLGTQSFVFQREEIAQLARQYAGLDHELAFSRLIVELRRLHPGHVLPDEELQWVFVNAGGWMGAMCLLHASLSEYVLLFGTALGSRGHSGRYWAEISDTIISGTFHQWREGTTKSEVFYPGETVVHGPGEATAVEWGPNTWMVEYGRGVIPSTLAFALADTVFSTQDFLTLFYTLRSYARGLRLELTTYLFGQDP

[7] = molecular target: Delta-type opioid receptor (Homo sapiens, UniProt P41143); type: cell membranes, HEK293, Membrane; details: for IC50: hek293
Sequence of Delta-type opioid receptor (P41143 whole entry): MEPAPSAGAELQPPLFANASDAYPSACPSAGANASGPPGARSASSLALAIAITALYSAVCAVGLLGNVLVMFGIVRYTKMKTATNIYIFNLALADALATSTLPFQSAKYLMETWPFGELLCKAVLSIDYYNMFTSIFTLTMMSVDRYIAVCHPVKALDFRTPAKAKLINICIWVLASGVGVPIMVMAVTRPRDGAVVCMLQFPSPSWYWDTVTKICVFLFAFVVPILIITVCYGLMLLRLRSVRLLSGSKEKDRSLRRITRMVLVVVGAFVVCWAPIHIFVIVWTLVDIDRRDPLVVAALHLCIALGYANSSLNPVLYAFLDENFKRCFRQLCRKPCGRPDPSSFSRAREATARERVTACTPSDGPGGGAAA

Adenosine receptor A1 = molecular target: T2, Adenosine receptor A1 (Homo sapiens, UniProt P30542); type: cell membranes, Membrane; details: cho
T2 sequence (P30542 whole entry): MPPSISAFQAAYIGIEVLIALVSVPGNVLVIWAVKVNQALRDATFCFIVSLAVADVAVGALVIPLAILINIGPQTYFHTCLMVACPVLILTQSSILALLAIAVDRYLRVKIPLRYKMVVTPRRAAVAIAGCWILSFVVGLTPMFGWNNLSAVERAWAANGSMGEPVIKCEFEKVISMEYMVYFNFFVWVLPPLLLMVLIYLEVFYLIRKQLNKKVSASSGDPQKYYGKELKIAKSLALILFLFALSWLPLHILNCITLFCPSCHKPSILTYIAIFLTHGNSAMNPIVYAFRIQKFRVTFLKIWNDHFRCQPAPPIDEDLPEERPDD

[8] = molecular target: Tyrosine-protein kinase Lck (Homo sapiens, UniProt P06239); assay: DRUGMATRIX: Protein Tyrosine Kinase, LCK enzyme inhibition (substrate: Poly(Glu:Tyr)); type: cell-based, Insect cells; details: insect cells; Not Active = under 50% inhibition at 10 µM
Sequence of Tyrosine-protein kinase Lck (P06239 whole entry): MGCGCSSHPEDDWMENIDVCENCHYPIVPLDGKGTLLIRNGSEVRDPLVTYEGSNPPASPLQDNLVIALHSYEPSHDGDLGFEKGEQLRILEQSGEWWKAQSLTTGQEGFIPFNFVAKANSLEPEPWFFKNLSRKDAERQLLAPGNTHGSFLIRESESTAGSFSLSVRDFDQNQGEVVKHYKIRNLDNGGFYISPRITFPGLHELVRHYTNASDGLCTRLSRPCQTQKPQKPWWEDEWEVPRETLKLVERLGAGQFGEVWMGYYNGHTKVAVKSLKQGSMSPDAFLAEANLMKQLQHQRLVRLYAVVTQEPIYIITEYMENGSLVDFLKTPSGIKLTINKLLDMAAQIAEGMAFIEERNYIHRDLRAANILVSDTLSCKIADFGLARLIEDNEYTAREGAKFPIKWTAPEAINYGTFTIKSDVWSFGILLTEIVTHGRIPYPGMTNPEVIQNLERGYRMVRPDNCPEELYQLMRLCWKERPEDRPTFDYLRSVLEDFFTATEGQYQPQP

Sequence of Insulin receptor (P15127 27-759 limits assumed): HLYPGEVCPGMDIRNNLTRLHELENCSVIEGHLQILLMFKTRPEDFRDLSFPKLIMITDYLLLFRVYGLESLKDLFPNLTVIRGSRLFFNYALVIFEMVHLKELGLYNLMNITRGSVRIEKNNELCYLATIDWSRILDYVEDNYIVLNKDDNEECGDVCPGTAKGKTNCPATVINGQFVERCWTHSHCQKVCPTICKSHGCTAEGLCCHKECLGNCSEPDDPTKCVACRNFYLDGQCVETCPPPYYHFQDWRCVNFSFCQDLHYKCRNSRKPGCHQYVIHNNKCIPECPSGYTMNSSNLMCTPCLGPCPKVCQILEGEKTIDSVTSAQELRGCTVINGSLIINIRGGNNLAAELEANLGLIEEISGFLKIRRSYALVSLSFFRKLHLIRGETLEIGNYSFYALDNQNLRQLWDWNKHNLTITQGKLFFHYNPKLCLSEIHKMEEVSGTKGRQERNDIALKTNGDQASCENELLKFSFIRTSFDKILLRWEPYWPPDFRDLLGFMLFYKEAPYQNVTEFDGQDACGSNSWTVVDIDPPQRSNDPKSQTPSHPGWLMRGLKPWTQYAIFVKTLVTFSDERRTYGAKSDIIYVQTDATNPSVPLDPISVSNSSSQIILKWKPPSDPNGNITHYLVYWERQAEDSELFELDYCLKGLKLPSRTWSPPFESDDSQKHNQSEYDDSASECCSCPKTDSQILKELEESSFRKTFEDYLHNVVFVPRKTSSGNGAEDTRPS
Sequence of Insulin receptor (P15127 764-1383 limits assumed): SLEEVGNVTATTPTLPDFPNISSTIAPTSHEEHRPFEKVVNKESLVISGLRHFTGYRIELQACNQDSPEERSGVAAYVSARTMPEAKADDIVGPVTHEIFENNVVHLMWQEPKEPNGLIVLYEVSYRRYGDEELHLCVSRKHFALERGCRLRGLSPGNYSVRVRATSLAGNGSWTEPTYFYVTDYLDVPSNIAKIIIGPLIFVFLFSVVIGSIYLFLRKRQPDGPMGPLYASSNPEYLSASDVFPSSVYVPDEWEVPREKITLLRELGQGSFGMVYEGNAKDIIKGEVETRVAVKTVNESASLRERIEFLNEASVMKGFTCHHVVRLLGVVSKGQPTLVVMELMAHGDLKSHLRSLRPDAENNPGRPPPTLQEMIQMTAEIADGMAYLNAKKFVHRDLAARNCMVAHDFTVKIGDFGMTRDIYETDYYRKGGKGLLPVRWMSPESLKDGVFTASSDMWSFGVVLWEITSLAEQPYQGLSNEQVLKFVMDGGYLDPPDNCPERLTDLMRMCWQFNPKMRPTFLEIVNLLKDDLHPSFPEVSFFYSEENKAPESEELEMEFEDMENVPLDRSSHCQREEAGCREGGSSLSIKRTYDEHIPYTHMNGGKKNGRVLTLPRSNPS

| SMILES | IC50 (Insulin receptor) | IC50 [1] | IC50 [2] | IC50 [3] | IC50 (Nitric oxide synthase 1) | IC50 [4] | Ki [4] | IC50 [5] | Ki [5] | IC50 [6] | IC50 [7] | IC50 (Adenosine receptor A1) | IC50 [8] | pIC50 [3] | pKi [3] | pIC50 ([7]; read-out: IC50) | pKi ([7]; read-out: Ki) | pIC50 ([6]; read-out: IC50) | pKi ([6]; read-out: Ki) |
| --- | --- | --- | --- | --- | --- | --- | --- | --- | --- | --- | --- | --- | --- | --- | --- | --- | --- | --- | --- |
| CC1=C(CC(=O)O)c2cc(F)ccc2/C1=C\c1ccc([S+](C)[O-])cc1 (stereo unspecified) | Not Active | Not Active | Not Active | Not Active | Not Active | Not Active | Not Active | Not Active | Not Active | Not Active | Not Active | Not Active | Not Active |  |  |  |  |  |  |
| N[C@H](CSC(=S)NCc1ccccc1)C(=O)O | Not Active | Not Active | Not Active | Not Active | Not Active | Not Active | Not Active | Not Active | Not Active | Not Active | Not Active | Not Active | Not Active |  |  |  |  |  |  |
| CC(=O)N[C@@H]1[C@H](Oc2c3cc4cc2Oc2ccc(cc2Cl)[C@@H](O[C@@H]2O[C@@H](CO)[C@@H](O)[C@H](O)[C@@H]2NC(C)=O)[C@@H]2NC(=O)[C@H](NC(=O)[C@@H]4NC(=O)[C@H]4NC(=O)[C@@H](Cc5ccc(c(Cl)c5)O3)NC(=O)[C@H](N)c3ccc(O)c(c3)Oc3cc(O)cc4c3)c3ccc(O)c(c3)-c3c(O[C@H]4O[C@H](CO)[C@@H](O)[C@@H](O)[C@@H]4O)cc(O)cc3[C@@H](C(=O)O)NC2=O)O[C@@H](CO)[C@@H](O)[C@@H]1O | Not Active | Not Active | Not Active | Not Active | Not Active | Not Active | Not Active | Not Active | Not Active | Not Active | Not Active | Not Active | Not Active |  |  |  |  |  |  |
| Clc1ccc2c(c1)C(N1CCNCC1)=Nc1ccccc1O2 [AMOXAPINE] | Not Active | Not Active | Not Active |  | Not Active |  |  |  |  | Not Active | Not Active | Not Active | Not Active |  |  |  |  |  |  |
| COc1cc2c(c(OC)c1OC)-c1ccc(OC)c(=O)cc1[C@@H](NC(C)=O)CC2 [COLCHICINE] | Not Active | Not Active | Not Active | Not Active | Not Active |  |  |  |  | Not Active | Not Active | Not Active | Not Active |  |  |  |  |  |  |
| CN1CCC(=C2c3ccccc3C=Cc3ccccc32)CC1 [CYPROHEPTADINE] | Not Active | Not Active | Not Active |  | Not Active |  |  |  |  | Not Active | Not Active | Not Active | Not Active | 6.55 | 6.89 |  |  |  |  |
| CC/C(=C(/CC)c1ccc(O)cc1)c1ccc(O)cc1 [DIETHYLSTILBESTROL] | Not Active | Not Active | Not Active |  | Not Active |  |  |  |  | Not Active |  |  | Not Active | 4.89 | 5.22 |  |  |  |  |
| CC(=O)N1CCN(c2ccc(OCC3COC(Cn4ccnc4)(c4ccc(Cl)cc4Cl)O3)cc2)CC1 (stereo unspecified) [KETOCONAZOLE] | Not Active | Not Active | Not Active | Not Active | Not Active | Not Active | Not Active |  |  | Not Active |  | Not Active | Not Active |  |  | 4.89 | 5.35 |  |  |
| C=CCN1CC[C@]23c4c5ccc(O)c4O[C@H]2C(=O)CC[C@@]3(O)[C@H]1C5 [NALOXONE] | Not Active | Not Active | Not Active | Not Active | Not Active |  |  |  |  | Not Active |  | Not Active | Not Active |  |  |  |  |  |  |
| COCCOC(=O)C1=C(C)NC(C)=C(C(=O)OC(C)C)C1c1cccc([N+](=O)[O-])c1 (stereo unspecified) [NIMODIPINE] | Not Active | Not Active | Not Active | Not Active | Not Active | Not Active | Not Active | Not Active | Not Active | Not Active | Not Active | Not Active | Not Active |  |  |  |  |  |  |
| CC(C)NCC(O)COc1cccc2ccccc12 (stereo unspecified) [PROPRANOLOL] | Not Active | Not Active | Not Active |  | Not Active |  |  |  |  |  | Not Active | Not Active | Not Active | 5.51 | 5.85 |  |  | 5.54 | 5.92 |
| COCCCOc1ccnc(C[S+]([O-])c2nc3ccccc3[nH]2)c1C (stereo unspecified) [RABEPRAZOLE] | Not Active | Not Active | Not Active | Not Active | Not Active | Not Active | Not Active | Not Active | Not Active | Not Active | Not Active | Not Active | Not Active |  |  |  |  |  |  |
| O=C(c1ccc(OCCN2CCCCC2)cc1)c1c(-c2ccc(O)cc2)sc2cc(O)ccc12 [RALOXIFENE] | Not Active | Not Active | Not Active | Not Active | Not Active | Not Active | Not Active | Not Active | Not Active |  |  | Not Active | Not Active |  |  |  |  |  |  |
| CNC(=C[N+](=O)[O-])NCCSCc1ccc(CN(C)C)o1 [RANITIDINE] | Not Active | Not Active | Not Active | Not Active | Not Active | Not Active | Not Active | Not Active | Not Active | Not Active | Not Active | Not Active | Not Active |  |  |  |  |  |  |
| CO[C@H]1/C=C/O[C@@]2(C)Oc3c(C)c(O)c4c(c3C2=O)C2=NC3(CCN(CC(C)C)CC3)NC2=C(NC(=O)/C(C)=C\C=C\[C@H](C)[C@H](O)[C@@H](C)[C@@H](O)[C@@H](C)[C@H](OC(C)=O)[C@@H]1C)C4=O [RIFABUTIN] | Not Active | Not Active | Not Active | Not Active | Not Active | Not Active | Not Active | Not Active | Not Active | Not Active | Not Active | Not Active | Not Active |  |  |  |  |  |  |
| CC(C)c1nc(CN(C)C(=O)N[C@H](C(=O)N[C@@H](Cc2ccccc2)C[C@H](O)[C@H](Cc2ccccc2)NC(=O)OCc2cncs2)C(C)C)cs1 [RITONAVIR] | Not Active | Not Active | Not Active | Not Active | Not Active | Not Active | Not Active | Not Active | Not Active | Not Active | Not Active | Not Active | Not Active |  |  |  |  |  |  |
| CC(C)CC(N(C)C)C1(c2ccc(Cl)cc2)CCC1 (stereo unspecified) [SIBUTRAMINE] | Not Active | Not Active | Not Active | Not Active | Not Active | Not Active | Not Active | Not Active | Not Active | Not Active | Not Active | Not Active | Not Active |  |  |  |  |  |  |
| CC(C)(C)c1ccc(C(O)CCCN2CCC(C(O)(c3ccccc3)c3ccccc3)CC2)cc1 (stereo unspecified) [TERFENADINE] | Not Active | Not Active | Not Active |  | Not Active | Not Active | Not Active |  |  | Not Active | Not Active | Not Active | Not Active |  |  |  |  |  |  |
| C[C@@H](N)[C@H]1CC[C@H](C(=O)Nc2ccncc2)CC1 [Y-27632] | Not Active | Not Active | Not Active | Not Active | Not Active | Not Active | Not Active | Not Active | Not Active | Not Active | Not Active | Not Active |  |  |  |  |  |  |  |
